According to US20110039799A1, “A1 ADENOSINE RECEPTOR AGONIST POLYMORPHS” (Gilead Palo Alto, Inc., priority 2009, published 2011):
“Also recorded” adds a separate entry of the source.

Key:
[1] = Water vapor sorption (dynamic vapor adsorption), hygroscopicity; assay type: physicochemical; details: adsorption/desorption 5% to 95% relative humidity
Method: Water vapor sorption data were collected on a VTI SGA-100 Vapor Sorption Analyzer. Adsorption and desorption data were collected over a range of 5% to 95% relative humidity (RH) at 10% RH intervals under a nitrogen purge. The samples were not dried prior to analyses. Equilibrium criteria used for the analyses were less than 0.0100% weight change in 5 minutes, with a maximum equilibration time of 3 hours if the weight criterion was not met. Data were not corrected for the initial moisture content of the samples. NaCl and PVP were used as calibration standards.

[2] = Solid-state stability by DSC thermogram (storage, wet granulation, direct compression, grinding); assay type: physicochemical; details: for stability when stored, in comparison to compound formed from Example 1: storage, ambient temperature and 75% relative humidity (Form III 5 months, Form IV 3 months)
Method: Differential scanning calorimetry (DSC) was performed using a TA Instruments differential scanning calorimeter either Q1000 or Q2000. The sample was placed into an aluminum DSC pan, and the weight accurately recorded. The pan was covered with a lid (sometimes the lid was perforated with a (laser) pinhole to allow for pressure release), and then either crimped or hermetically sealed. The sample cell was equilibrated at either 25° C. (Q2000) or 40° C. (Q1000) and heated under a nitrogen purge at a rate of 10° C./min, up to a final temperature of either 180 (Q1000)° C. or 250° C. (Q2000). Indium metal was used as the calibration standard.

[3] = in vivo, US 2007/018505 Example 32; cited from earlier work
[4] = cited from earlier work

SMILES	hygroscopicity by dynamic vapor adsorption [1]	stability when stored, in comparison to compound formed from Example 1 [2]	solid-state stability by DSC thermogram when subjected to direct compression and grinding [2]	solid-state stability by DSC thermogram when subjected to wet granulation [2]	further results
O[C@@H]1[C@H](O)[C@@H](CSc2ccccc2F)O[C@H]1n1cnc2c(N[C@@H]3CCC[C@H]3O)ncnc21 [Form IV, 2-{6-[((1R,2R)-2-hydroxycyclopentyl)amino]purin-9-yl}(4S,5S,2R,3R)-5-[(2-fluorophenylthio)methyl]oxolane-3,4-diol]	non-hygroscopic; also recorded: not hygroscopic	enhanced stability	–	–	–
O[C@@H]1[C@H](O)[C@@H](CSc2ccccc2F)O[C@H]1n1cnc2c(N[C@@H]3CCC[C@H]3O)ncnc21 [Example 1, 2-{6-[((1R,2R)-2-hydroxycyclopentyl)amino]purin-9-yl}(4S,5S,2R,3R)-5-[(2-fluorophenylthio)methyl]oxolane-3,4-diol]	high hygroscopicity	–	DSC thermogram change and instability	DSC thermogram change and instability	DSC thermogram upon storage ([2]; storage at 40° C. and 75% relative humidity for 2 months): DSC thermogram change
O[C@@H]1[C@H](O)[C@@H](CSc2ccccc2F)O[C@H]1n1cnc2c(N[C@@H]3CCC[C@H]3O)ncnc21 [GS-9667, 2-{6-[((1R,2R)-2-hydroxycyclopentyl)amino]purin-9-yl}(4S,5S,2R,3R)-5-[(2-fluorophenylthio)methyl]oxolane-3,4-diol]	–	–	–	–	circulating free fatty acides (FFA) [3]: lowering; insulin sensitivity [3]: improving; serum triglyceride (TG) levels [3]: lowering
O[C@@H]1[C@H](O)[C@@H](CSc2ccccc2F)O[C@H]1n1cnc2c(N[C@@H]3CCC[C@H]3O)ncnc21 [Form III, 2-{6-[((1R,2R)-2-hydroxycyclopentyl)amino]purin-9-yl}(4S,5S,2R,3R)-5-[(2-fluorophenylthio)methyl]oxolane-3,4-diol]	non-hygroscopic; also recorded: not hygroscopic	enhanced stability	not affected	not affected	stability to moisture, mechanical stress, pharmaceutical processing, and temperature changes, relative to other crystalline forms ([2]; general statement): superior
Nc1ncnc2c1ncn2[C@@H]1O[C@H](CO)[C@@H](O)[C@H]1O [adenosine, Adenosine]	–	–	–	–	half-life [4]: less than 10 seconds
